Experimental data as given in patent publication US20040214864A1, “Novel compounds” (priority 2000, published 2004).
Counter-ions that a name gives are not always drawn.

Row | melting point [°C] | SMILES
1 | 260 to 262 | O=C(c1ccc(-c2nn(Cc3cccc(Cl)c3)c(=S)[nH]2)cc1)N1CCN(c2cccc(Cl)c2)CC1 (as salt: hydrochloride) [Example 8, 2-[(3-Chlorophenyl)methyl]-5-[4-[[4-(3-chlorophenyl)-1-piperazinyl]carbonyl]phenyl]-2,4-dihydro-3H-1,2,4-triazole-3-thione]
2 | 302 | O=C(O)c1ccc(-c2nn(Cc3cccc(Cl)c3)c(=S)[nH]2)cc1 [Example 1, 4-[1-[(3-Chlorophenyl)methyl]-4,5-dihydro-5-thioxo-1H-1,2,4-triazol-3-yl]-benzoic acid]
3 | 263.5 to 264.5 | COC(=O)c1ccc(-c2nn(Cc3cccc(Cl)c3)c(=S)[nH]2)cc1 [Example 2, Methyl 4-[1-[(3-Chlorophenyl)methyl]-4,5-dihydro-5-thioxo-1H-1,2,4-triazol-3-yl]-benzoate]
4 | 310 to 312 | NC(=O)c1ccc(-c2nn(Cc3cccc(Cl)c3)c(=S)[nH]2)cc1 [Example 3, 4-[1-[(3-Chlorophenyl)methyl]-4,5dihydro-5-thioxo-1H-1,2,4-triazol-3-yl]-benzamide]
5 | 302 to 304 | CN(C)C(=O)c1ccc(-c2nn(Cc3cccc(Cl)c3)c(=S)[nH]2)cc1 [Example 4, 4-[1-[(3-Chlorophenyl)methyl]-4,5-dihydro-5-thioxo-1H-1,2,4-triazol-3-yl]-N,N-dimethyl-benzamide]
6 | 218 to 220 | CC(C)CCNC(=O)c1ccc(-c2nn(Cc3cccc(Cl)c3)c(=S)[nH]2)cc1 [Example 5, 4-[1-[(3-Chlorophenyl)methyl]-4,5-dihydro-5-thioxo-1H-1,2,4-triazol-3-yl]-N-(3-methylbutyl)-benzamide]
7 | 220 to 222 | C[C@@H](NC(=O)c1ccc(-c2nn(Cc3cccc(Cl)c3)c(=S)[nH]2)cc1)[C@@H](O)c1ccccc1 [Example 6, [1R, 2S]-4-[1-[(3-Chlorophenyl)methyl]-4,5-dihydro-5-thioxo-1H-1,2,4-triazol-3-yl]-N-(2-hydroxy-1-methyl-2-phenylethyl)-benzamide]
8 | 188 to 190 | O=C(NCCO)c1ccc(-c2nn(Cc3cccc(Cl)c3)c(=S)[nH]2)cc1 [Example 7, 4-[1-[(3-Chlorophenyl)methyl]-4,5-dihydro-5-thioxo-1H-1,2,4-triazol-3-yl]-N-(2-hydroxyethyl)-benzamide]
9 | 234 to 238 | O=C(O)c1ccccc1-c1nn(Cc2cccc(Cl)c2)c(=S)[nH]1 [Example 11, 2-[1-[(3-Chlorophenyl)methyl]-4,5-dihydro-5-thioxo-1H-1,2,4-triazol-3-yl]-benzoic acid]
10 | 314 to 316 | O=C(O)c1cccc(-c2nn(Cc3cccc(Cl)c3)c(=S)[nH]2)c1 [Example 12, 3-[1-[(3-Chlorophenyl)methyl]-4,5-dihydro-5-thioxo-1H-1,2,4-triazol-3-yl]-benzoic acid]
11 | 281 to 283 | NS(=O)(=O)c1ccc(-c2nn(Cc3cccc(Cl)c3)c(=S)[nH]2)cc1 [Example 13, 4-[1-[(3-chlorophenyl)methyl]-4,5dihydro-5-thioxo-1H-1,2,4-triazol-3-yl]-benzenesulfonamide]
12 | 188 to 196 | COC(=O)C(CO)NC(=O)c1cccc(-c2nn(Cc3cccc(Cl)c3)c(=S)[nH]2)c1 (stereo not shown) [Example 14]
13 | 173 to 175 | CN(C)CC(C)(C)CNC(=O)c1cccc(-c2nn(Cc3cccc(Cl)c3)c(=S)[nH]2)c1 [Example 15, 3-{1-[(3-Chlorophenyl)methyl]-1,2-dihydro-5thioxo-1H[1,2,4]triazol-3-yl}-N-(2-methyl-2-dimethylaminomethylpropyl)benzamide]
14 | 184 to 187 | CN(C)C(=O)c1cccc(-c2nn(Cc3cccc(Cl)c3)c(=S)[nH]2)c1 [Example 16, 3-{1-[(3-Chlorophenyl)methyl]-1,2-dihydro-5thioxo-1H[1,2,4]triazol-3-yl}-N,N-dimethylbenzamide]
15 | 178 to 182 | N#CCNC(=O)c1cccc(Cn2nc(-c3ccccc3Cl)[nH]c2=S)c1 [Example 17]
16 | 165 to 168 | O=C(NCCF)c1cccc(Cn2nc(-c3ccccc3Cl)[nH]c2=S)c1 [Example 18]
